The text below walks through data of US10647675B2 (priority 2015, dated 2020).

Usually MIC stands for the smallest concentration in the dilution series that meets the test's criterion for growth inhibition.

Values after ≈ are worked out from the molar mass of the structure shown.

Test [1] deals with Trichophyton mentagrophytes SM-110. The experiment in a line: Antifungal activity evaluation test: minimum inhibitory concentration (MIC), broth dilution by reference to CLSI M38-A2. It is filed as cell-based. Particulars: SM110, read-out: MIC (T. menta.). As to the method: (§1) The minimum inhibitory concentration (MIC) for Trichophyton mentagrophytes and Trichophyton rubrum was measured by the following procedure by reference to Clinical and Laboratory standards Institute (CLSI) guidelines M38-A2. Reference document for the measurement method: National Committee for a Clinical Laboratory Standards. Reference method for broth dilution antifungal susceptibility testing of filamentous fungi. Approved standard Second edition M38-A2. Wayne, Pa.: National Committee for a Clinical Laboratory Standards, 2008. • Test compound solution: A test compound was dissolved in dimethyl sulfoxide (DMSO) at a concentration of 2.5 mg/mL to give a stock solution. The stock solution was appropriately diluted with DMSO to prepare a 2-fold dilution series. As control compounds, terbinafine and amorolfine were used. • Test strains: Trichophyton mentagrophytes SM-110 and Trichophyton rubrum KD-1130 were used. • Preparation of fungal culture to be inoculated: The above-mentioned test strain was suspended in 0.05% Tween 80-containing saline, and the fungi of the genus Trichophyton were prepared to a fungal concentration of 1×10^6 cells/mL by using a hemocytometer. Then, using MOPS-buffered RPMI 1640 medium (pH 7.0) as a test medium, a fungal culture of the fungi of the genus Trichophyton was diluted 250-fold (4×10^3 cells/mL) to give a fungal culture for inoculation. • MIC measurement of genus Trichophyton fungi: MOPS-buffered RPMI 1640 medium (pH 7.0) was dispensed by 100 μL to given wells of a 96 well U-bottom microplate. Then, the test compound solution (2 μL) was added, the mixture was sufficiently stirred by a plate mixer. The fungal culture (100 μL) was inoculated and the mixture was cultured at 35° C. for 4 days (final fungal concentration: 2×10^3 cells/mL). After the culture, the minimum drug concentration of a well in which a growth inhibitory action of not less than 80% was visually observed as compared to a growth control was taken as a minimum inhibitory concentration (MIC: μg/mL).
(§2) The abbreviations in the Tables mean the following fungi and compounds. • T. menta.: Trichophyton mentagrophytes • T. rubrum: Trichophyton rubrum • TBF: terbinafine • AMF: amorolfine
(In general: In broth dilution the organism is exposed to a series of concentrations in liquid medium.)

In test [2] the test system is Trichophyton rubrum KD-1130. The description is as above. It is filed as cell-based. Particulars: KD1130, read-out: MIC (T. rubrum). As to the method: as §1, §2

Take `FC1(F)Oc2cccc(-c3cccnc3Oc3ccc(C(F)(F)F)nc3)c2O1` [I-39, 3-(2,2-difluorobenzo[1,3]dioxol-4-yl)-2-{[6-(trifluoromethyl)pyridin-3-yl]oxy}pyridine]: the MIC in test [1] was no more than 0.1 µg/mL; in test [2], 0.2 to 0.78 µg/mL (≈ 0.505 to 1.97 µM).
For `O=C1CCc2cccc(-c3cccnc3Oc3ccc(C(F)(F)F)nc3)c21` [I-40, 7-(2-{[6-(trifluoromethyl)pyridin-3-yl]oxy}pyridin-3-yl)-2,3-dihydro-1H-inden-1-one] the same measures were 0.2 to 0.78 µg/mL (≈ 0.54 to 2.11 µM) and 0.2 to 0.78 µg/mL (≈ 0.54 to 2.11 µM).
For `Fc1cc2c(c(-c3cccnc3Oc3ccc(C(F)(F)F)nc3)c1)OCC2` [I-41, 3-(5-fluoro-2,3-dihydrobenzofuran-7-yl)-2-{[6-(trifluoromethyl)pyridin-3-yl]oxy}pyridine] the same measures were no more than 0.1 µg/mL and no more than 0.1 µg/mL.
With `FC(F)(F)c1ccc(Oc2ncccc2-c2cccc3cc[nH]c23)cn1` [I-42, 7-(2-{[6-(trifluoromethyl)pyridin-3-yl]oxy}pyridin-3-yl)-1H-indole], the MIC in test [1] and in test [2] was 0.2 to 0.78 µg/mL (≈ 0.563 to 2.2 µM) each time.
For the compound `FC(F)(F)c1ccc(Oc2ncccc2-c2cccc3ccncc23)cn1` [I-43, 8-(2-{[6-(trifluoromethyl)pyridin-3-yl]oxy}pyridin-3-yl)-isoquinoline], the MIC in test [1] and in test [2] was 0.2 to 0.78 µg/mL (≈ 0.544 to 2.12 µM) throughout.
On to `FC(F)(F)c1ccc(Oc2ncccc2-c2cccc3ccnn23)cn1` [I-44, 7-(2-{[6-(trifluoromethyl)pyridin-3-yl]oxy}pyridin-3-yl)-pyrazolo[1,5-a]pryidine], for which the MIC in test [1] and in test [2] was no more than 0.1 µg/mL in each case.
Regarding `FC(F)(F)c1ccc(Oc2ncccc2-c2cccc3ncnn23)cn1` [I-45, 5-(2-{[6-(trifluoromethyl)pyridin-3-yl]oxy}pyridin-3-yl)-[1,2,4]triazolo[1,5-a]pryidine], the MIC was in the range of 1.56 to 6.25 µg/mL (≈ 4.37 to 17.5 µM) in test [1] and 0.2 to 0.78 µg/mL (≈ 0.56 to 2.18 µM) in test [2].
For `Cn1nc(-c2cccnc2Oc2ccc(C(F)(F)F)nc2)c2cccnc21` [I-47, 1-methyl-3-(2-{[6-(trifluoromethyl)pyridin-3-yl]oxy}pyridin-3-yl)-1H-pyrazolo[3,4-b]pryidine], in that order: 1.56 to 6.25 µg/mL (≈ 4.2 to 16.8 µM) and 1.56 to 6.25 µg/mL (≈ 4.2 to 16.8 µM).
For `Cc1cc(-c2cccnc2Oc2ccc(C(F)(F)F)nc2)n2nccc2n1` [I-48, 5-methyl-7-(2-{[6-(trifluoromethyl)pyridin-3-yl]oxy}pyridin-3-yl)-pyrazolo[1,5-a]pyrimidine], in that order: 1.56 to 6.25 µg/mL (≈ 4.2 to 16.8 µM) and 0.2 to 0.78 µg/mL (≈ 0.539 to 2.1 µM).
With `FC(F)(F)c1ccc(Oc2ncccc2-c2cnn3ccccc23)cn1` [I-49, 3-(2-{[6-(trifluoromethyl)pyridin-3-yl]oxy}pyridin-3-yl)-pyrazolo[1,5-a]pryidine], the MIC in test [1] and in test [2] was 1.56 to 6.25 µg/mL (≈ 4.38 to 17.5 µM) each time.
In the case of `FC(F)(F)c1ccc(Oc2ncccc2-n2ccc3cccnc32)cn1` [I-50, 1-(2-{[6-(trifluoromethyl)pyridin-3-yl]oxy}pyridin-3-yl)-1H-pyrrolo[2,3-b]pryidine], the MIC in test [1] and in test [2] was 0.2 to 0.78 µg/mL (≈ 0.561 to 2.19 µM) in each case.
Regarding `FC(F)(F)c1ccc(Oc2ncccc2-c2cccc3c(Cl)cnn23)cn1` [I-51, 3-chloro-7-(2-{[6-(trifluoromethyl)pyridin-3-yl]oxy}pyridin-3-yl)-pyrazolo[1,5-a]pyridine], the MIC in test [1] and in test [2] was no more than 0.1 µg/mL each time.
Regarding `FC(F)(F)c1ccc(Oc2ncccc2-c2cccc3c(Br)cnn23)cn1` [I-52, 3-bromo-7-(2-{[6-(trifluoromethyl)pyridin-3-yl]oxy}pyridin-3-yl)-pyrazolo[1,5-a]pyridine], the figures for the MIC in test [1] and in test [2] were 0.2 to 0.78 µg/mL (≈ 0.46 to 1.79 µM) and no more than 0.1 µg/mL, respectively.
For `Cc1cnn2c(-c3cccnc3Oc3ccc(C(F)(F)F)nc3)cccc12` [I-53, 3-methyl-7-(2-{[6-(trifluoromethyl)pyridin-3-yl]oxy}pyridin-3-yl)-pyrazolo[1,5-a]pyridine] the same measures were 0.2 to 0.78 µg/mL (≈ 0.54 to 2.11 µM) and no more than 0.1 µg/mL.
For `N#Cc1cnn2c(-c3cccnc3Oc3ccc(C(F)(F)F)nc3)cccc12` [I-54, 7-(2-{[6-(trifluoromethyl)pyridin-3-yl]oxy}pyridin-3-yl)-pyrazolo[1,5-a]pyridine-3-carbonitrile], in that order: 0.2 to 0.78 µg/mL (≈ 0.524 to 2.05 µM) and 0.2 to 0.78 µg/mL (≈ 0.524 to 2.05 µM).
As to `FC(F)(F)c1ccc(Oc2ncccc2-c2ccccc2OCC2CCC2)cn1` [I-55, 3-[2-(cyclobutylmethoxy)phenyl]-2-{[6-(trifluoromethyl)pyridin-3-yl]oxy}pyridine], the MIC in test [1] and in test [2] was 0.2 to 0.78 µg/mL (≈ 0.5 to 1.95 µM) throughout.
As for `C#CCOc1ccccc1-c1cccnc1Oc1ccc(C(F)(F)F)nc1` [I-56, 3-[2-(2-propyn-1-yloxy)phenyl]-2-{[6-(trifluoromethyl)pyridin-3-yl]oxy}pryidine], the MIC in test [1] and in test [2] was 0.2 to 0.78 µg/mL (≈ 0.54 to 2.11 µM) each time.
Consider `FC(F)(F)c1ccc(Oc2ncccc2-c2ccccc2OCC2CC2)cn1` [I-57, 3-[2-(cyclopropylmethoxy)phenyl]-2-{[6-(trifluoromethyl)pyridin-3-yl]oxy}pryidine], for which the MIC in test [1] and in test [2] was 0.2 to 0.78 µg/mL (≈ 0.518 to 2.02 µM) in each case.
On to `FC(F)(F)c1ccc(Oc2ncccc2-c2ccccc2C2CC2)cn1` [I-59, 3-(2-cyclopropylphenyl)-2-{[6-(trifluoromethyl)pyridin-3-yl]oxy}pryidine], for which the MIC in test [1] and in test [2] was 0.2 to 0.78 µg/mL (≈ 0.561 to 2.19 µM) each time.
Take `COCc1ccccc1-c1cccnc1Oc1ccc(C(F)(F)F)nc1` [I-60]: the MIC in test [1] and in test [2] was 0.2 to 0.78 µg/mL (≈ 0.555 to 2.16 µM) each time.
Turning to `Nc1ccccc1-c1cccnc1Oc1ccc(C(F)(F)F)nc1` [I-61, 2-(2-{[6-(trifluoromethyl)pyridin-3-yl]oxy}pyridin-3-yl)-aniline], the MIC in test [1] and in test [2] was 1.56 to 6.25 µg/mL (≈ 4.71 to 18.9 µM) throughout.
On to `CN(C)c1ccccc1-c1cccnc1Oc1ccc(C(F)(F)F)nc1` [I-62, N,N-dimethyl-2-(2-{[6-(trifluoromethyl)pyridin-3-yl]oxy}pyridin-3-yl)-aniline], for which the MIC in test [1] was in the range of 1.56 to 6.25 µg/mL (≈ 4.34 to 17.4 µM); in test [2], 0.2 to 0.78 µg/mL (≈ 0.557 to 2.17 µM).
For `O=Cc1ccccc1-c1cccnc1Oc1ccc(C(F)(F)F)nc1` [I-63, 2-(2-{[6-(trifluoromethyl)pyridin-3-yl]oxy}pyridin-3-yl)-benzaldehyde], in that order: 0.2 to 0.78 µg/mL (≈ 0.581 to 2.27 µM) and 0.2 to 0.78 µg/mL (≈ 0.581 to 2.27 µM).
For `C#Cc1ccccc1-c1cccnc1Oc1ccc(C(F)(F)F)nc1` [I-64, 3-(2-ethynylphenyl)-2-{[6-(trifluoromethyl)pyridin-3-yl]oxy}pyridine], in that order: no more than 0.1 µg/mL and no more than 0.1 µg/mL.
For `COc1ccccc1-c1c(C)ccnc1Oc1ccc(C(F)(F)F)nc1` [I-65, 3-(2-methoxyphenyl)-4-methyl-2-{[6-(trifluoromethyl)pyridin-3-yl]oxy}pyridine] the same measures were 0.2 to 0.78 µg/mL (≈ 0.555 to 2.16 µM) and no more than 0.1 µg/mL.
For the compound `COc1ccccc1-c1cc(C)cnc1Oc1ccc(C(F)(F)F)nc1` [I-66, 3-(2-methoxyphenyl)-5-methyl-2-{[6-(trifluoromethyl)pyridin-3-yl]oxy}pyridine], the MIC in test [1] lay in the range of 1.56 to 6.25 µg/mL (≈ 4.33 to 17.3 µM); in test [2], 0.2 to 0.78 µg/mL (≈ 0.555 to 2.16 µM).
For `COc1ccccc1-c1ccc(C)nc1Oc1ccc(C(F)(F)F)nc1` [I-67] the same measures were 0.2 to 0.78 µg/mL (≈ 0.555 to 2.16 µM) and 0.2 to 0.78 µg/mL (≈ 0.555 to 2.16 µM).
For `COc1ccccc1-c1cccnc1Oc1ccc(C)nc1` [I-68], the MIC in test [1] and in test [2] was 1.56 to 6.25 µg/mL (≈ 5.34 to 21.4 µM) throughout.
As for `COc1ccccc1-c1cccnc1Oc1ccc(COC(C)=O)nc1` [I-69, (5-{[3-(2-methoxyphenyl)-pyridin-2-yl]oxy}pyridin-2-yl)methyl acetate], the MIC in test [1] and in test [2] was 1.56 to 6.25 µg/mL in each case.
As for `COc1ccccc1-c1cccnc1Oc1ccc(C=O)nc1` [I-71, 5-{[3-(2-methoxyphenyl)pyridin-2-yl]oxy}picolinaldehyde], the MIC in test [1] and in test [2] was 1.56 to 6.25 µg/mL (≈ 5.09 to 20.4 µM) in each case.
With `COc1ccccc1-c1cccnc1Oc1ccc(C(F)F)nc1` [I-72, 2-{[6-(difluoromethyl)pyridin-3-yl]oxy}(2-methoxyphenyl)pyridine], the MIC in test [1] and in test [2] was 0.2 to 0.78 µg/mL (≈ 0.609 to 2.38 µM) throughout.
As for `COc1cc(F)ccc1-c1cccnc1Oc1ccc(C(F)F)nc1` [I-73, 2-{[6-(difluoromethyl)pyridin-3-yl]oxy}-3-(4-fluoro-2-methoxyphenyl)pyridine], the MIC in test [1] and in test [2] was no more than 0.1 µg/mL in each case.
On to `COc1ccc(F)c(-c2cccnc2Oc2ccc(C(F)F)nc2)c1` [I-74, 2-{[6-(difluoromethyl)pyridin-3-yl]oxy}-3-(2-fluoro-5-methoxyphenyl)pyridine], for which the MIC in test [1] and in test [2] was no more than 0.1 µg/mL in each case.
On to `COc1cc(-c2cccnc2Oc2ccc(C(F)F)nc2)ccc1F` [I-75, 2-{[6-(difluoromethyl)pyridin-3-yl]oxy}-3-(4-fluoro-3-methoxyphenyl)pyridine], for which the MIC in test [1] and in test [2] was no more than 0.1 µg/mL in each case.
